Assay results reported in patent US11821003B2, “Cardiogenic mesoderm formation regulators” (Sanford Burnham Prebys Medical Discovery Institute, priority 2017, dated 2023).
Entries after “also recorded” stand apart in the source; their conditions may differ.

Assays:
mESCs = settings: cited from earlier work
[1] = system: cardiomyocytes derived from Id1 overexpressing h9-hESCs; test: Beat rate of cardiomyocytes measured optically with VF2.1 Cl; assay type: cell-based, human; settings: 100 nM, compared to vehicle
Protocol: FIG. 3F. Schematic of the workflow for the physiological assessment of cardiomyocytes derived from Id1 overexpressing h9-hESCs using the calcium (Fluo-4) and voltage (VF2.1 Cl)(Miller et al., 2012) sensitive dyes.
Next, experiments were performed to determine whether iMP progenitors are bona fide multipotent cardiovascular progenitors and thus able to differentiate into multiple cardiac lineages including functional cardiomyocytes. To address this question, iMPs were first produced in bulk until day 6 of differentiation for mouse, or day 5 for human. At this point, iMPs could be cryopreserved or used fresh. Spontaneous differentiation potential under basal media conditions without cytokines (FIG. 3A) was assessed by RT-qPCR (FIGS. 3B, 3C) and immunostaining (FIG. 3D and FIGS. 9A, 9B) at day 15 of differentiation. […] Although iMPs are multipotent progenitors, the vast majority of the cells (˜70%) spontaneously differentiate into ACTC1^+ cardiomyocytes in hESCs (FIG. 3E). Next, we assessed whether resulting ACTC1^+ cells show characteristics of functional cardiomyocytes, which include the ability to contract, display intracellular calcium oscillations and action potentials, and respond to hormonal stimuli (Birket et al., 2015; Burridge et al., 2014).

Compound | Id1 transcripts (mESCs) | beat rate [1]
NC(=O)c1ccc(-c2nc(-c3ccc4c(c3)OCO4)c(-c3ccccn3)[nH]2)cc1 [SB431542] | upregulate Id1 transcripts | 
CC(C)NCC(O)c1ccc(O)c(O)c1 (centres unmarked) [isoproterenol] |  | increased beat rate; also recorded: increase in beating frequency
